{"source": "patent US7485427B1", "about": "“Photocleavable bioreactive agents” (The Trustees of Boston University, priority 1994, dated 2009)", "origin": "cited, not measured here", "biological_target": "avidin (Gallus gallus, UniProt P02701)", "sequence (P02701 25-152)": "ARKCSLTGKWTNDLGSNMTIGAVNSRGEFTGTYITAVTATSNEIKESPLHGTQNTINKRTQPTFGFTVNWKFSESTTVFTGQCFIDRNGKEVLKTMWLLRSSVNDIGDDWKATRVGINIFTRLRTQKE", "settings": "binding between avidin and biotin"}
{"smiles": "O=C(O)CCCC[C@@H]1SC[C@@H]2NC(=O)N[C@@H]21", "note": "[biotin]", "values": [{"measurement": "association constant (Ka)", "result": "about 10^15 M^−1"}]}
